Columns and labels:
Type in all cases: physicochemical
[1] = Congo red oxidation sensitivity / qualitative diffusion test; settings: microcapsules = sample 2 (PMMA-BPO); 4% (w/w) BPO free or encapsulated, BPO/congo red 30:1, 50-55° C.
Protocol: Azo-dye congo red was used as a model for oxidation-sensitive component, the ratio BPO/congo red=30:1(w/w).
Three comparative systems were utilized: • 1—BPO microcapsules (sample 2) • 2—free BPO • 3—without BPO (blank)
For the preparation of (1) and (2), 9 g (ml) aqueous dispersion containing 4% (w/w) BPO (free or encapsulated) were suspended with 0.1% Tween™ 20 (polysorbate 20) and 9 g liquid vehicle and stirred in a 25 ml beaker with a magnetic stirrer. Following a mixing period of 30 minutes, the temperature of the system was raised to 50-55° C. and 1 ml of a 1% aqueous solution of congo red were added. The blank system (3) was prepared by stirring 9 ml 0.1% Tween™ 20 and 9 g liquid vehicle, and adding 1 ml of a 1% aqueous solution of congo red. After stirring the suspension for 1 minute, pictures of the three systems were taken.

[2] = Chemical stability of BPO in gel containing 1% free retinol, 40° C., 30 days (HPLC); settings: encapsulated = sample 21; gel with 1% free retinol, 5% BPO, 30 days storage at 40° C.
Protocol: HPLC was used for BPO analysis following storage at 40° C. (encapsulated BPO vs. free BPO in a gel formulation containing 1% free retinol).

[3] = Chemical stability of BPO in aqueous gel formulation, 40° C., 90 days (HPLC); settings: 5% BPO, 90 days at 40° C. (FIG. 21)
Protocol: Geogard (0.7 g, Lonza) was dissolved in water by heating to 40-50° C. and the solution was allowed to cool to room temperature. Clindamycin phosphate was optionally dissolved in the solution (in formulations comprising antibiotics). Xanthan gum (1 g, Interaxion) was slowly added under medium mixing until the xanthan gum gel was formed. BPO microcapsules were then added to the gel by simple mixing. The composition of the gel formulation is detailed in Table 8 below.
BPO microcapsules were incorporated into the gel formulation (gel base comprising no clindamycin) at final BPO concentration of 5% and incubated at 40° C. over 90 days. Stability studies were performed for compositions comprising only encapsulated BPO or encapsulated BPO in combination with 0.75-1% of Clindamycin Phosphate. BPO concentration was determined immediately after incorporation into gel formulation and after 30, 60 and 90 days. Total concentration of BPO was determined by mixing 1 gr of the gel formulation with dichloromethane/methanollacetonitrile solution. BPO concentration in water phase was determined after separation of microcapsules from gel by centrifugation. The water phase was mixed with dichloromethane/methanol/acetonitrile solution in order to extract BPO and its content was determined using HPLC.

O=C(OOC(=O)c1ccccc1)c1ccccc1 [free BPO, benzoyl peroxide]
color of congo red solution [1]: changed its color from red to yellow | relative content of BPO from the initial concentration [2]: 36% | decrease in the concentration of BPO [3]: negligible decrease
